Test results as given in patent US12029217B2, “Safened compositions comprising pyridine carboxylate herbicides and isoxadifen” (Corteva Agriscience LLC, priority 2018, dated 2024).

Assays:
Type in all cases: in vivo
[1] = tested on: Matricaria chamomilla (wild chamomile); assay: Greenhouse postemergence visual injury, wild chamomile (MATCH); settings: Example 1
From the text: (§1) Seeds of the desired test plant species were planted in a 90:10% v/v (volume/volume) mixture of PRO-MIX® BX (Premier Tech Horticulture, Quakertown, PA, USA) and PROFILE® GREENS GRADE™ (Profile Products LLC, Buffalo Grove, IL, USA) planting mixture, which typically has a pH of 5.2 to 6.2 and an organic matter content of at least 50 percent, in plastic pots with a surface area of 103.2 square centimeters (cm^2). When required to ensure good germination and healthy plants, a fungicide treatment and/or other chemical or physical treatment was applied. The plants were grown for 7-36 days (d) in a greenhouse with an approximate 14-hour (h) photo-period which was maintained at about 23° C. during the day and 22° C. during the night. Nutrients and water were added on a regular basis and supplemental lighting was provided with overhead metal halide 1000-Watt lamps as necessary. The plants were employed for testing when they reached the second or third true leaf stage.
(§2) Emulsifiable concentrates of each of each pyridine carboxylate herbicide (Compound A or Compound B) were prepared at 100 grams acid equivalent per liter (g ae/L). An aliquot of each emulsifiable concentrate was placed in a 25 mL glass vial and diluted with an aqueous mixture of 1.25% (v/v) ACTIROB® B esterified rapeseed oil (Bayer Crop Science, Research Triangle Park, NC, USA) or MSO® Concentrate with LECI-TECH® methylated soybean oil (Loveland Products, Loveland, CO, USA) to obtain concentrated stock solutions at the highest application rate for each herbicide, based upon a 12 milliliter (mL) application volume at a rate of 187 liters per hectare (L/ha). The concentrated stock solutions were further diluted with an aqueous mixture of 1.25% v/v ACTIROB® B or MSO® Concentrate with LECI-TECH® to obtain stock solutions at reduced application rates for each herbicide. Spray solutions of the herbicide combinations (Compound A or Compound B plus safener) were prepared by adding weighed amounts or aliquots of the safener to the stock solutions of Compound A or Compound B to form 12-mL spray solutions in two-way combinations.
(§3) The spray solutions were applied to the plant material with an overhead Mandel track sprayer equipped with 8002E nozzles calibrated to deliver 187 L/ha over an application area of 0.503 square meters (m^2) at a spray height of 18 inches (43 centimeters (cm)) above the average plant canopy. […]
(§4) The treated plants and control plants were placed in a greenhouse as described above and watered by sub-irrigation to prevent wash-off of the test compounds. After 20-22 d, the condition of the test plants as compared with that of the control plants was determined visually and scored on a scale of 0 to 100 percent where 0 corresponds to no injury and 100 corresponds to complete kill.

[2] = tested on: Salsola kali (Russian thistle); assay: Greenhouse postemergence visual injury, Russian thistle (SASKR); settings: Example 1
From the text: as §1, §2, §3, §4

[3] = tested on: Saccharum officinarum (sugarcane); assay: Greenhouse postemergence visual injury, sugarcane (SACOF); settings: Example 3
From the text: as §1, §2
(§5) The spray solutions were applied to the plant material with an overhead Mandel track sprayer equipped with 8002E nozzles calibrated to deliver 187 L/ha over an application area of 0.503 square meters (m^2) at a spray height of 18 inches (43 centimeters (cm)) above the average plant canopy. Control plants were sprayed in the same manner with the solvent blank. All herbicide (component a) application rates are given as “g ae/ha” and all safener (component b) application rates are given as “g ai/ha.”
as §4

[4] = tested on: Cyperus esculentus (nutsedge); assay: Greenhouse postemergence visual injury, nutsedge (CYPES)
From the text: as §1, §2, §5, §4

[5] = tested on: Helianthus annuus (common sunflower); assay: Greenhouse postemergence visual injury, common sunflower (HELAN)
From the text: as §1, §2, §5, §4

[6] = tested on: Zea mays (maize); assay: Greenhouse postemergence visual injury, maize (ZEAMX)
From the text: as §1, §2, §5, §4

[7] = tested on: Sorghum vulgare (sorghum); assay: Greenhouse postemergence visual injury, sorghum (SORVU); settings: Example 5
From the text: as §1, §2, §5, §4

[8] = tested on: Alopecurus myosuroides (blackgrass); assay: Greenhouse postemergence visual injury, blackgrass (ALOMY); settings: Example 6
From the text: as §1, §2, §3, §4

[9] = tested on: Avena fatua (wild oat); assay: Greenhouse postemergence visual injury, wild oat (AVEFA); settings: Example 6
From the text: as §1, §2, §3, §4

[10] = tested on: Cirsium arvense (Canada thistle); assay: Greenhouse postemergence visual injury, Canada thistle (CIRAR); settings: Example 6
From the text: as §1, §2, §3, §4

[11] = tested on: Digitaria sanguinalis (large crabgrass); assay: Greenhouse postemergence visual injury, large crabgrass (DIGSA)
From the text: as §1, §2, §5, §4

[12] = tested on: Glycine max (soybean); assay: Greenhouse postemergence visual injury, soybean (GLXMA)
From the text: as §1, §2, §5, §4

[13] = tested on: Ipomoea hederacea (ivyleaf morningglory); assay: Greenhouse postemergence visual injury, ivyleaf morningglory (IPOHE); settings: Example 6
From the text: as §1, §2, §3, §4

[14] = tested on: Kochia scoparia (kochia); assay: Greenhouse postemergence visual injury, kochia (KCHSC); settings: Example 6
From the text: as §1, §2, §3, §4

[15] = tested on: Leptochloa chinensis (Chinese sprangletop); assay: Greenhouse postemergence visual injury, Chinese sprangletop (LEFCH); settings: Example 6
From the text: as §1, §2, §3, §4

[16] = tested on: Polygonum convolvulus (wild buckwheat); assay: Greenhouse postemergence visual injury, wild buckwheat (POLCO); settings: Example 6
From the text: as §1, §2, §3, §4

[17] = tested on: Setaria faberi (giant foxtail); assay: Greenhouse postemergence visual injury, giant foxtail (SETFA)
From the text: as §1, §2, §5, §4

[18] = tested on: Viola tricolor (wild pansy); assay: Greenhouse postemergence visual injury, wild pansy (VIOTR); settings: Example 6
From the text: as §1, §2, §3, §4

[19] = tested on: Eleusine indica (goosegrass); assay: Greenhouse postemergence visual injury, goosegrass (ELEIN); settings: Example 7
From the text: as §1, §2, §3, §4

[20] = isoxadifen-ethyl 20 g/ha, Example 4
[21] = isoxadifen-ethyl 20 g/ha, Example 5
[22] = isoxadifen-ethyl 20 g/ha, Example 6
[23] = isoxadifen-ethyl 40 g/ha, Example 4
[24] = isoxadifen-ethyl 40 g/ha, Example 5
[25] = isoxadifen-ethyl 40 g/ha, Example 6
[26] = isoxadifen-ethyl 80 g/ha, Example 4
[27] = isoxadifen-ethyl 80 g/ha, Example 5
[28] = isoxadifen-ethyl 80 g/ha, Example 6
[29] = isoxadifen-ethyl 120 g/ha, Example 4
[30] = isoxadifen-ethyl 120 g/ha, Example 5
[31] = isoxadifen-ethyl 10 g/ha, Example 7
[32] = isoxadifen-ethyl 20 g/ha, Example 7

Measured: % visual injury, Ob

CCOC(=O)C1=NOC(c2ccccc2)(c2ccccc2)C1 [Isoxadifen-ethyl, isoxadifen-ethyl]
0%: [1]; isoxadifen-ethyl 10 g/ha | [1]; isoxadifen-ethyl 20 g/ha | [1]; isoxadifen-ethyl 40 g/ha | [2]; isoxadifen-ethyl 10 g/ha | [2]; isoxadifen-ethyl 20 g/ha | [2]; isoxadifen-ethyl 40 g/ha | [3]; isoxadifen-ethyl 10 g/ha | [3]; isoxadifen-ethyl 20 g/ha | [3]; isoxadifen-ethyl 40 g/ha | [3]; isoxadifen-ethyl 80 g/ha | [4]; [20] | [4]; [21] | [4]; [22] | [4]; [23] | [4]; [24] | [4]; [25] | [4]; [26] | [4]; [27] | [4]; [28] | [4]; [29] | [4]; [30] | [5]; [20] | [5]; [21] | [5]; [22] | [5]; [23] | [5]; [24] | [5]; [25] | [5]; [26] | [5]; [27] | [5]; [28] | [5]; [29] | [5]; [30] | [6]; [31] | [6]; [21] | [6]; [22] | [6]; [32] | [6]; [24] | [6]; [25] | [6]; [27] | [6]; [28] | [6]; [30] | [7]; isoxadifen-ethyl 20 g/ha | [7]; isoxadifen-ethyl 40 g/ha | [7]; isoxadifen-ethyl 80 g/ha | [7]; isoxadifen-ethyl 120 g/ha | [8]; isoxadifen-ethyl 20 g/ha | [8]; isoxadifen-ethyl 40 g/ha | [8]; isoxadifen-ethyl 80 g/ha | [9]; isoxadifen-ethyl 20 g/ha | [9]; isoxadifen-ethyl 40 g/ha | [9]; isoxadifen-ethyl 80 g/ha | [10]; isoxadifen-ethyl 20 g/ha | [10]; isoxadifen-ethyl 40 g/ha | [10]; isoxadifen-ethyl 80 g/ha | [11]; [31] | [11]; [22] | [11]; [32] | [11]; [25] | [11]; [28] | [12]; [31] | [12]; [22] | [12]; [32] | [12]; [25] | [12]; [28] | [13]; isoxadifen-ethyl 20 g/ha | [13]; isoxadifen-ethyl 40 g/ha | [13]; isoxadifen-ethyl 80 g/ha | [14]; isoxadifen-ethyl 20 g/ha | [14]; isoxadifen-ethyl 40 g/ha | [14]; isoxadifen-ethyl 80 g/ha | [15]; isoxadifen-ethyl 20 g/ha | [15]; isoxadifen-ethyl 40 g/ha | [15]; isoxadifen-ethyl 80 g/ha | [16]; isoxadifen-ethyl 20 g/ha | [16]; isoxadifen-ethyl 40 g/ha | [16]; isoxadifen-ethyl 80 g/ha | [17]; [31] | [17]; [22] | [17]; [32] | [17]; [25] | [17]; [28] | [18]; isoxadifen-ethyl 20 g/ha | [18]; isoxadifen-ethyl 40 g/ha | [18]; isoxadifen-ethyl 80 g/ha | [19]; isoxadifen-ethyl 10 g/ha | [19]; isoxadifen-ethyl 20 g/ha
